Assay results taken from PMC3166231 (Inorganic chemistry, 2010).
Counter-ions that a name gives are not always drawn. Like-named read-outs stand apart in the source and are kept apart here. Marks after values point to notes of the source that are not given here.

What was measured:
[1] = pH = 7.4, [Fe3+] = 1.0 × 10^−6 mol dm^−3, [L] = 1.0 × 10^−5 mol dm^−3, cited from earlier work
[2] = cited from earlier work; for pFe: bidentate donor group, ref [17]–[20]; for K2 (proton independent stepwise formation constant): second ligand; for K3 (proton independent stepwise formation constant): third ligand
Literature Fe = type: binding; details: refs [19], [21]; for Δ1–2: difference K1 − K2 of cited stepwise constants; for Δ2–3: difference K2 − K3 of cited stepwise constants
[3] = ref [14]; cited from earlier work

In the case of `Cn1cccc(O)c1=O` [1-methyl-3-hydroxypyridin-2-one], the pFe ([1]; ref [63]) is given as 16 ^b.

For `O=c1[nH]cccc1O` [3,2-HOPO], the pFe [2] is given as 16.26, the “K1 (proton independent stepwise formation constant)” value ([2]; iron complex, first ligand, ref [19], [21]) is given as 11.48 and the “K2 (proton independent stepwise formation constant)” value ([2]; iron complex, ref [19], [21]) is given as 9.77. For the same compound, the “K3 (proton independent stepwise formation constant)” value ([2]; iron complex, ref [19], [21]) was 8.01, the “Δ1–2” value (Literature Fe) was 1.71 and the “Δ2–3” value (Literature Fe) was 1.76.

For `Oc1cccnc1O` [3-hydroxy-2-pyridinone], the “pKa of the 3-hydroxy-2-pyridinone donor group alone” value [3] is given as 8.66.

For `O=C(O)c1ccc(-n2nc(-c3ccccc3O)nc2-c2ccccc2O)cc1` [Deferasirox, deferasirox], the pFe ([1]; ref [65]) is given as 23.5 ^d.

In the case of `Cc1c(O)c(=O)ccn1C` [Deferiprone, 1,2-dimethyl-3-hydroxy-4-pyridinone], the pFe ([1]; ref [64]) is listed as 19.4 ^c.

For `CC(=O)N(O)CCCCCNC(=O)CCC(=O)N(O)CCCCCNC(=O)CCC(=O)N(O)CCCCCN` [Deferrioxamine B, desferrioxamine B mesylate], the pFe ([1]; ref [67]) is listed as 26.6 ^h.

In the case of `Oc1ccccc1O` [catechol], the pFe [2] is listed as 15.1, the “K2 (proton independent stepwise formation constant)” value ([2]; iron complex, ref [19], [21]) is listed as 15.5 and the “K3 (proton independent stepwise formation constant)” value ([2]; iron complex, ref [19], [21]) is listed as 9.4. For the same compound, the “Δ1–2” value (Literature Fe) was 4.9 and the “Δ2–3” value (Literature Fe) was 6.1.

For “Transferrin: iron transport protein used as pFe comparison”, the pFe ([1]; ref [66]) is listed as 23.6 ^e.
